The record followed here is patent US7192746B2, “α-Isomaltosyltransferase, process for producing the same and use thereof” (Kabushiki Kaisha Hayashibara Seibutsu Kagaku Kenkyujo, priority 2000, dated 2007).

What all share (assay): Specificity to transferring acceptor
What all share (type): biochemical
Common to all, as to parameters: key: −: no saccharide transferred product was formed; ±: a saccharide-transferred product formed in an amount of less than one percent to the total sugars; +: a saccharide-transferred product was formed in an amount of over one percent but below 10% to the total sugars; ++: a saccharide-transferred product was formed in an amount of over 10% to the total sugars

The subject of test [1] is α-isomaltosyl-transferring enzyme from Arthrobacter globiformis A19. The following applies: partially purified enzyme, panose as saccharide donor, 10 units/g substrate, 3.2% (w/v), 30° C., pH 6.0, 24 hours. As to the method:
(§1) Saccharides were tested as follows to examine whether they can be used as transferring acceptors for the α-isomaltosyl-transferring enzyme of the present invention. A solution of D-glucose, D-xylose, L-xylose, D-galactose, D-fructose, D-mannose, D-arabinose, D-fucose, L-sorbose, L-rhamnose, methyl-α-glucoside (or methyl-α-glucopyranoside), methyl-β-glucoside (or methyl-β-glucopyranoside), N-acetyl-D-glucosamine, D-ribose, L-ribose, D-psicose, sorbitol, xylitol, mannitol, arabitol, ribitol, erythritol, maltose, maltotriose, maltotetraose, maltopentaose, isomaltose, isomaltotriose, α,α-trehalose, α,β-trehalose, kojibiose, nigerose, cellobiose, gentibiose, isopanose, maltitol, maltotriitol, lactose, sucrose, erlose, isomaltosylglucoside, α-cyclodextrin, β-cyclodextrin, γ-cyclodextrin, or L-ascorbic acid was prepared. To each solution was added panose as a saccharide donor to give an equal concentration, admixed with 10 units/g substrate of a purified specimen of either α-isomaltosyl-transferring enzyme from Bacillus globisporus C9 obtained by the method in Experiment 4, Bacillus globisporus C11 obtained by the method in Experiment 7, Bacillus globisporus N75 obtained by the method in Experiment 11, or Arthrobacter ramosus S1 obtained by the method in Experiment 15, or a partially purified specimen of α-isomaltosyl-transferring enzyme from Arthrobacter globiformis A19 obtained by the method in Experiment 18, followed by adjusting the saccharide concentration to 3.2% (w/v). The mixtures thus obtained were enzymatically reacted at 30° C. and Ph 6.0 for 24 hours. The saccharide composition of the resulting reaction mixtures were analyzed on gas chromatography (abbreviated as “GLC” hereinafter) for monosaccharides and disaccharides as testing saccharides, and on HPLC for tri- or higher-saccharides as testing saccharides to confirm whether these saccharides can be used as transferring acceptors for the above enzymes with an index of the positive or negative formation of a saccharide transferred product. In performing GLC, the following apparatuses and conditions were used: GLC apparatus, “GC-16A” commercialized by Shimadzu Corporation, Tokyo, Japan; column, a stainless-steel column, 3 mm in diameter and 2 m in length, packed with 2% “SILICONE OV-17/[…]”, commercialized by GL Sciences Inc., Tokyo, Japan; carrier gas, nitrogen gas at a flow rate of 40 ml/min under temperature conditions of increasing from 160° C. to 320° C. at an increasing temperature rate of 7.5° C./min; and detection, a hydrogen flame ionization detector. In the case of HPLC analysis, the apparatuses and conditions used were: HPLC apparatus, “CCPD” commercialized by Tosoh Corporation, Tokyo, Japan; column, “ODS-AQ-303” commercialized by YMC Co., Ltd., Tokyo, Japan; eluent, water at a flow rate of 0.5 ml/min; and detection, a differential refractometer.

Test [2] concerns α-isomaltosyl-transferring enzyme from Bacillus globisporus C11. The following applies: panose as saccharide donor, 10 units/g substrate, 3.2% (w/v), 30° C., pH 6.0, 24 hours. As to the method:
as §1

The test system of test [3] is α-isomaltosyl-transferring enzyme from Bacillus globisporus N75. The settings on record: panose as saccharide donor, 10 units/g substrate, 3.2% (w/v), 30° C., pH 6.0, 24 hours. As to the method: as §1
In test [4] the test system is α-isomaltosyl-transferring enzyme from Arthrobacter ramosus S1. The settings on record: panose as saccharide donor, 10 units/g substrate, 3.2% (w/v), 30° C., pH 6.0, 24 hours. As to the method: as §1
Test [5] concerns α-isomaltosyl-transferring enzyme from Bacillus globisporus C9. The settings on record: panose as saccharide donor, 10 units/g substrate, 3.2% (w/v), 30° C., pH 6.0, 24 hours. As to the method: as §1

Regarding `OC[C@@H](O)[C@@H](O)CO` [Erythritol, erythritol], the “Product of transferring reaction, Enzyme of Stain A19” value (“Product … of Stain A19” below) in test [1] is listed as “± (a saccharide-transferred product formed in an amount of less than one percent to the total sugars)”. Besides, in test [2], the “Product of transferring reaction, Enzyme of Strain C11” value (“Product … of Strain C11” below) is recorded as “+ (a saccharide-transferred product was formed in an amount of over one percent but below 10% to the total sugars)”. For the same compound, the “Product of transferring reaction, Enzyme of Strain N75” value (“Product … of Strain N75” for short) in test [3] is on record as “+ (a saccharide-transferred product was formed in an amount of over one percent but below 10% to the total sugars)”. The “Product of transferring reaction, Enzyme of Strain S1” value (from here on “Product … of Strain S1”) in test [4] is on record as “+ (a saccharide-transferred product was formed in an amount of over one percent but below 10% to the total sugars)”. Further, the “Product of transferring reaction, Enzyme of Strain C9” value (“Product … of Strain C9” for short) in test [5] is “+ (a saccharide-transferred product was formed in an amount of over one percent but below 10% to the total sugars)”.

On to `O=C[C@@H](O)[C@H](O)[C@@H](O)CO` [L-Xylose, L-xylose], for which the “Product … of Stain A19” value in test [1] was “++ (a saccharide-transferred product was formed in an amount of over 10% to the total sugars)”. For the same compound, in test [2], the “Product … of Strain C11” value was “++ (a saccharide-transferred product was formed in an amount of over 10% to the total sugars)”. Moreover, in test [3], the “Product … of Strain N75” value was “++ (a saccharide-transferred product was formed in an amount of over 10% to the total sugars)”. In addition, in test [4], the “Product … of Strain S1” value is recorded as “++ (a saccharide-transferred product was formed in an amount of over 10% to the total sugars)”. Also, the “Product … of Strain C9” value in test [5] is recorded as “++ (a saccharide-transferred product was formed in an amount of over 10% to the total sugars)”.

With `O=C[C@@H](O)[C@@H](O)[C@H](O)[C@H](O)CO` [D-Mannose, D-mannose], the “Product … of Stain A19” value in test [1] is “−”. For the same compound, the “Product … of Strain C11” value in test [2] is given as “−”. Also, the “Product … of Strain N75” value in test [3] is on record as “−”. For the same compound, the “Product … of Strain S1” value in test [4] is recorded as “−”. In addition, the “Product … of Strain C9” value in test [5] is on record as “−”.

For `O=C[C@H](O)[C@@H](O)[C@H](O)CO` [D-Xylose, D-xylose], the “Product … of Stain A19” value in test [1] is “++ (a saccharide-transferred product was formed in an amount of over 10% to the total sugars)”. Also, in test [2], the “Product … of Strain C11” value was “++ (a saccharide-transferred product was formed in an amount of over 10% to the total sugars)”. Moreover, the “Product … of Strain N75” value in test [3] is given as “++ (a saccharide-transferred product was formed in an amount of over 10% to the total sugars)”. For the same compound, the “Product … of Strain S1” value in test [4] is “++ (a saccharide-transferred product was formed in an amount of over 10% to the total sugars)”. For the same compound, the “Product … of Strain C9” value in test [5] is “++ (a saccharide-transferred product was formed in an amount of over 10% to the total sugars)”.

Take `O=C(CO)[C@@H](O)[C@H](O)[C@@H](O)CO` [L-Sorbose, L-sorbose]: the “Product … of Stain A19” value in test [1] was “+ (a saccharide-transferred product was formed in an amount of over one percent but below 10% to the total sugars)”. Also, the “Product … of Strain C11” value in test [2] is given as “+ (a saccharide-transferred product was formed in an amount of over one percent but below 10% to the total sugars)”. Also, in test [3], the “Product … of Strain N75” value was “+ (a saccharide-transferred product was formed in an amount of over one percent but below 10% to the total sugars)”. Further, the “Product … of Strain S1” value in test [4] was “+ (a saccharide-transferred product was formed in an amount of over one percent but below 10% to the total sugars)”. Also, the “Product … of Strain C9” value in test [5] is recorded as “+ (a saccharide-transferred product was formed in an amount of over one percent but below 10% to the total sugars)”.

`O=C[C@@H](O)[C@@H](O)[C@@H](O)CO` [L-Ribose, L-ribose]: in test [1], the “Product … of Stain A19” value is on record as “± (a saccharide-transferred product formed in an amount of less than one percent to the total sugars)”. In addition, the “Product … of Strain C11” value in test [2] is recorded as “−”. Further, the “Product … of Strain N75” value in test [3] is listed as “−”. Moreover, the “Product … of Strain S1” value in test [4] is “++ (a saccharide-transferred product was formed in an amount of over 10% to the total sugars)”. The “Product … of Strain C9” value in test [5] is on record as “−”.

As for `OC[C@H]1O[C@@](CO)(O[C@H]2O[C@H](CO)[C@@H](O[C@H]3O[C@H](CO)[C@@H](O)[C@H](O)[C@H]3O)[C@H](O)[C@H]2O)[C@@H](O)[C@@H]1O` [Erlose, erlose], the “Product … of Stain A19” value in test [1] was “+ (a saccharide-transferred product was formed in an amount of over one percent but below 10% to the total sugars)”. In addition, the “Product … of Strain C11” value in test [2] is “+ (a saccharide-transferred product was formed in an amount of over one percent but below 10% to the total sugars)”. In test [3], the “Product … of Strain N75” value is given as “+ (a saccharide-transferred product was formed in an amount of over one percent but below 10% to the total sugars)”. Further, the “Product … of Strain S1” value in test [4] is “+ (a saccharide-transferred product was formed in an amount of over one percent but below 10% to the total sugars)”. The “Product … of Strain C9” value in test [5] is given as “+ (a saccharide-transferred product was formed in an amount of over one percent but below 10% to the total sugars)”.

For the compound `OC[C@@H](O)[C@@H](O)[C@H](O)[C@H](O)CO` [Mannitol, mannitol], the “Product … of Stain A19” value in test [1] is “−”. In addition, the “Product … of Strain C11” value in test [2] was “−”. Moreover, the “Product … of Strain N75” value in test [3] is listed as “−”. Moreover, the “Product … of Strain S1” value in test [4] was “−”. The “Product … of Strain C9” value in test [5] was “−”.

For the compound `C[C@H](O)[C@H](O)[C@@H](O)[C@@H](O)C=O` [L-Rhamnose, L-rhamnose], the “Product … of Stain A19” value in test [1] is on record as “± (a saccharide-transferred product formed in an amount of less than one percent to the total sugars)”. For the same compound, the “Product … of Strain C11” value in test [2] is listed as “± (a saccharide-transferred product formed in an amount of less than one percent to the total sugars)”. The “Product … of Strain N75” value in test [3] was “± (a saccharide-transferred product formed in an amount of less than one percent to the total sugars)”. Further, the “Product … of Strain S1” value in test [4] was “+ (a saccharide-transferred product was formed in an amount of over one percent but below 10% to the total sugars)”. For the same compound, the “Product … of Strain C9” value in test [5] was “± (a saccharide-transferred product formed in an amount of less than one percent to the total sugars)”.

For the compound `CC(=O)N[C@H]1C(O)O[C@H](CO)[C@@H](O)[C@@H]1O` (stereo partly drawn) [N-Acetyl-glucosamine, N-acetyl-D-glucosamine], the “Product … of Stain A19” value in test [1] is on record as “−”. In test [2], the “Product … of Strain C11” value is reported as “−”. Moreover, the “Product … of Strain N75” value in test [3] is recorded as “−”. Besides, the “Product … of Strain S1” value in test [4] is “−”. Also, the “Product … of Strain C9” value in test [5] was “−”.
